# Test results from PMC8235661, “Photoelectric Dye, NK-5962, as a Potential Drug for Preventing Retinal Neurons from Apoptosis: Pharmacokinetic Studies Based on Review of the Evidence” (Life, 2021).
# Like-named read-outs stand apart in the source and are kept apart here.
# Columns and labels:
# [1] = test system: chick retinal cells including neurons and glial cells; experiment: Cell viability assay using mixed culture of chick retinal neurons and glial cells (LIVE/DEAD stain); type: cell-based; details: for percentage of dead cells in the exposure to light (mean): 2.78% in the absence of NK-5962
# Text: Egg shells (Fukuda Breeders Co., Ltd., Okayama, Japan) were disinfected with 70% alcohol and 12-day-old chick embryos were removed from a small opening. The eyes at this embryonic stage were used because the outer segments of the retinal photoreceptor cells had not yet been developed. The eyes were enucleated and cut at the midperiphery of the globe and the anterior halves were removed together with the vitreous. The neurosensory retina at this embryonic stage could easily be peeled off from the eye cup. After peeling, retinal tissues were incubated in 0.25% trypsin, 1 mM ethylenediaminetetraacetic acid (EDTA) in Ca^2+, and Mg^2+-free Hanks’ balanced salt solution (HBSS) to disperse retinal cells. After centrifugation, the retinal cells were washed with Dulbecco’s modified Eagle’s medium (DMEM) and seeded at a concentration of 3.5 × 10^5 cell/mL in poly-L-lysine-coated wells of a 96-well multidish containing DMEM supplemented with 10% fetal bovine serum (FBS), 100 mg/L streptomycin, and 100 mg/L ampicillin.
# In order to determine the types of cells, either neurons or glial cells derived from neurosensory retinal tissues, retinal cells following 2-day culture were stained for neuron-specific enolase and glial fibrillary acidic protein by immunocytochemistry. The majority of retinal cells at day 2 of the culture were neurons mixed with a small number of glial cells (Figure 2).
# Retinal cells at a concentration of 3.5 × 10^5 cell/mL in 220 μL of DMEM with 10% FBS were cultured together with 20 μL of varying concentrations of NK-5962 for 2 days either under protection from light or under light from a fluorescent lamp at 230 lux for 9 h daily. The final concentrations of NK-5962 in the solution were 1.6 × 10^−5, 1.6 × 10^−6, and 1.6 × 10^−7 M. Cells were then incubated for 15 min with SYTO 10 Green fluorescent nucleic acid stain and DEAD Red nucleic acid stain (LIVE/DEAD Reduced Biohazard Viability/Cytotoxicity Kit: Molecular Probes; Thermo Fisher Scientific, Waltham, MA, USA) in HEPES-buffered saline. After being fixed with 4% glutaraldehyde in HEPES-buffered saline, live cells and dead cells were visualized with a 100 W mercury lamp as a light source under a fluorescence inverted microscope through a set of FITC and PI filters (Olympus IX71; Olympus Life Sciences, Tokyo, Japan). Images in the center of each well were captured with a CCD camera and stored in a computer. Three wells were assigned to each condition of incubation in one series of experiments and the entire procedure was repeated three times on different days to obtain nine results for each condition. Green live cells (stained with SYTO 10 Green) and orange dead cells (stained with both SYTO10 Green and DEAD RED) in the images for each well were counted and the percentage of dead cells to the total cells was analyzed statistically (Figure 2).
# [2] = In vivo pharmacokinetics, intravenous administration; parameters: species or system rat
# Procedure: Male Sprague Dawley (SD) and Wistar rats (5-week old) were obtained from Charles River Laboratories Japan (Yokohama, Japan) and Japan SLC, Inc. (Hamamatsu, Japan), respectively. All animals were maintained in air-conditioned quarters with room temperatures of 20 ± 2 °C, relative humidity of 50 ± 10%, and an alternating 12 h light/dark cycle. The rats were fed a certified diet MF (Oriental Yeast Co., Tokyo, Japan) and water ad libitum. The studies were conducted in accordance with the guidelines provided by the Animal Care and Use Committee of Osaka University (Identifier DouyakuR01-3-1).
# A test compound (NK-5962) solution in 50% DMSO/water was injected intravenously (i.v.) to male SD rats. A test compound suspension in 0.5% methyl cellulose was administered orally (p.o.) to male Wistar rats. The dosage of the test compound was 1 mg/2 mL/kg (i.v.) and 10 or 100 mg/10 mL/kg (p.o.). Blood samples were collected from the jugular vein at 5 and 15 min and 1 h (i.v.) by using pre-heparinized syringe after the intravenous administration or from the caudal vein at 15 and 30 min, 1, 2 and 4 h (p.o.) by using heparinized capillary tube after the oral administration. At 30 min and 2 h (i.v.) or 8 h (p.o.), blood samples were collected from the abdominal aorta under isoflurane anesthesia and the eye balls and the whole brain were excised immediately.
# Plasma was prepared by centrifugation of the blood samples. Plasma and tissues were stored at −80 °C. The tissues were homogenized with a four-fold volume of phosphate-buffered saline to obtain a 20% tissue homogenate. Plasma and 20% tissue homogenates were precipitated with 4–20 volumes of acetonitrile/IS and centrifuged at 15,000× g at 4 °C for 10 min. The supernatants were analyzed by liquid chromatography and tandem mass spectrometry (LC-MS/MS). Standard non-compartmental analysis was performed to determine the pharmacokinetic parameters: elimination half-life (t1/2) and area under the concentration time curve from time zero to infinity (AUC∞). The absolute bioavailability (BA) of the oral dose was calculated as AUC∞ (p.o.)/AUC∞ (i.v.).
# Liquid chromatography and tandem mass spectrometry instrument (LC-MS8060) equipped with Shimadzu Nexera series LC system (Shimadzu, Kyoto, Japan) were used. All compounds were analyzed in multi-reaction monitoring mode under electron spray ionization conditions. The analytical column used was a […] C18 MGIII (3 μm × 2.0 mmID × 35 mm; OSAKA SODA, Osaka, Japan) at 50 °C. The gradient mobile phase consisted of 0.1% formic acid in water (mobile phase A) and 0.1% formic acid in acetonitrile (mobile phase B) at a total flow rate of 1 mL/minute. The initial mobile phase composition was 10% B, which was held constant for 0.2 min, increased in a linear fashion to 90% B over 1 min, then held constant for 0.8 min, and then finally brought back to the initial condition of 10% B over 0.01 min and re-equilibrated for 1 min. The transitions (precursor ion > product ion) of NK-5962 and IS (methyl testosterone) are 433.2 > 279.2 and 303.1 > 109.1 (positive), respectively.
# [3] = 0.16 μM NK-5962, exposure to light
# [4] = 1.6 μM NK-5962, exposure to light
# [5] = 16 μM NK-5962, exposure to light
# [6] = intravenous 1 mg/kg, 0.5 h, single rat, 1 mg/kg
# [7] = intravenous 1 mg/kg, 2 h, single rat, 1 mg/kg
smiles,measurement,setting,value
"CCCCN(CCCC)c1ccc(C=Cc2sc3ccccc3[n+]2CC(=O)O)cc1.[Br-] [NK-5962, 2-[2-[4-(dibutylamino)phenyl]ethenyl]-3-carboxymethylbenzothiazolium bromide]",rate of the percentage of dead cells compared with the absence of NK-5962,[1]; [3],105%
same,percentage of dead cells in the exposure to light (mean),[1]; [3],2.93%
same,rate of the percentage of dead cells compared with the absence of NK-5962,[1]; [4],68%
same,percentage of dead cells in the exposure to light (mean),[1]; [4],1.89%
same,rate of the percentage of dead cells compared with the absence of NK-5962,[1]; [5],42%
same,percentage of dead cells in the exposure to light (mean),[1]; [5],1.17%
same,IC50,"[1]; Gallus gallus, corrected with non-binding ratio 0.34 in 10% FBS, read-out: IC50 based on free form of NK-5962",1700 nM
same,Plasma Concentration,"[2]; intravenous 1 mg/kg, 0.083 h, single rat, 1 mg/kg",648 nM
same,Plasma Concentration,"[2]; intravenous 1 mg/kg, 0.25 h, single rat, 1 mg/kg",342 nM
same,Eye Ball/ Plasma Ratio,[2]; [6],0.045
same,Plasma Concentration,[2]; [6],569 nM
same,concentration at 2 h,"[2]; intravenous 1 mg/kg, 0.5 h, single rat, 1 mg/kg, read-out: Eye Ball Concentration",25.5 nM
same,Plasma Concentration,"[2]; intravenous 1 mg/kg, 1 h, single rat, 1 mg/kg",34.6 nM
same,Eye Ball/ Plasma Ratio,[2]; [7],0.16
same,Plasma Concentration,[2]; [7],22.0 nM
same,concentration at 2 h,"[2]; intravenous 1 mg/kg, 2 h, single rat, 1 mg/kg, read-out: Eye Ball Concentration",3.42 nM
same,Kp at 0.5 h,"[2]; male, Sprague Dawley, rat, eye ball / plasma, iv, 1 mg/kg, intravenous 1 mg/kg, 0.5 h, single rat, read-out: Eye Ball/ Plasma Ratio",0.052
same,Kp at 2 h,"[2]; male, Sprague Dawley, rat, eye ball / plasma, iv, 1 mg/kg, intravenous 1 mg/kg, 2 h, single rat, read-out: Eye Ball/ Plasma Ratio",0.17
same,concentration at 0.5 h,"[2]; male, Sprague Dawley, rat, eye ball, iv, 1 mg/kg, intravenous 1 mg/kg, 0.5 h (30 min), read-out: Mean Eye Ball Concentration",29.8 nM
same,concentration at 0.5 h,"[2]; male, Sprague Dawley, rat, eye ball, iv, 1 mg/kg, intravenous 1 mg/kg, 0.5 h, single rat, read-out: Eye Ball Concentration",34.1 nM
same,concentration at 2 h,"[2]; male, Sprague Dawley, rat, eye ball, iv, 1 mg/kg, intravenous 1 mg/kg, 2 h, single rat, read-out: Eye Ball Concentration",4.16 nM
same,concentration at 2 h,"[2]; male, Sprague Dawley, rat, eye ball, iv, 1 mg/kg, intravenous 1 mg/kg, 2 h, read-out: Mean Eye Ball Concentration",3.79 nM
same,concentration at 0.083 h,"[2]; male, Sprague Dawley, rat, plasma, iv, 1 mg/kg, intravenous 1 mg/kg, 0.083 h, single rat",779 nM
same,concentration at 0.25 h,"[2]; male, Sprague Dawley, rat, plasma, iv, 1 mg/kg, intravenous 1 mg/kg, 0.25 h, single rat",511 nM
same,concentration at 0.5 h,"[2]; male, Sprague Dawley, rat, plasma, iv, 1 mg/kg, intravenous 1 mg/kg, 0.5 h, single rat, read-out: Plasma Concentration",661 nM
same,concentration at 1 h,"[2]; male, Sprague Dawley, rat, plasma, iv, 1 mg/kg, intravenous 1 mg/kg, 1 h, single rat",49.9 nM
same,concentration at 2 h,"[2]; male, Sprague Dawley, rat, plasma, iv, 1 mg/kg, intravenous 1 mg/kg, 2 h, single rat, read-out: Plasma Concentration",24.3 nM
same,half-life,"[2]; male, Sprague Dawley, rat, plasma, intravenous 1 mg/kg body weight, rats",21 min
